Results on 16 compounds are retold here after patent US12473295B2, “Substituted straight chain spiro derivatives” (Janssen Pharmaceutica NV, priority 2019, dated 2025).

Counter-ions that a name gives are not always drawn.

In experiment [1] the target is menin/MLL (terbium chelate-labeled menin, FITC-MBM1 peptide) (Homo sapiens (Human), UniProt O00255). The experiment in a line: Menin/MLL homogenous time-resolved fluorescence (HTRF) assay.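 Also: IC50 from percent inhibition of HTRF signal, normalized between wells without competitor and wells with a saturating competitor that displaces FITC-MBM1 from His-tagged menin.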 Format: binding. The settings on record: HTRF-30 min incubation IC50, 30 min incubation. (Time-resolved FRET reads energy transfer from a long-lived donor to a nearby acceptor.)
In the next experiment the test system is MOLM14 cells. The experiment can be described thus: Proliferation assay (spheroid growth, 8 days), MOLM14.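 Also: spheroid size read as confluence by live-cell imaging, compounds added at a range of concentrations with 0.3% DMSO, DMSO-treated wells = 0%, highest reference dose = low control.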 Type of experiment: cell-based, human. The settings on record: Homo sapiens, MOLM-14, […], MOLM14, 8 days; read-out: spheroid assay_OneTime MOLM14 IC50.
The next experiment relates to OCI-AML3 cells. The experiment can be described thus: Proliferation assay (spheroid growth, 8 days), OCI-AML3. Type of experiment: cell-based, human. Conditions: Homo sapiens, OCI-AML-3, […], OCI-AML3, 8 days. The method in brief:
(§1)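 IC50 values derive from day-8 spheroid confluence, normalized between DMSO-treated wells and the highest dose of a reference compound, fitted with a variable slope. Cells grew 8 days at 37° C under a compound concentration series in 0.3% DMSO.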

The subject of another experiment is KO-52 cells. The experiment can be described thus: Proliferation assay (spheroid growth, 8 days), KO-52 control cell line. Type of experiment: cell-based, human. The settings on record: Homo sapiens, […], read-out: spheroid assay_OneTime KO-52 IC50. An outline of the steps:
as §1

The subject of another experiment is MEIS1 mRNA. The experiment can be described thus: MEIS1 mRNA expression assay (Quantigene Singleplex) in MOLM14 cells.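 Also: MEIS1 transcript levels read by probe hybridization and normalized to RPL28 mRNA, with IC50 fitted to fold changes across a rising compound concentration series.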 The settings on record: Homo sapiens, MOLM-14, 48 h, 48 hours incubation. Format: cell-based, human.

Sequence of menin/MLL (terbium chelate-labeled menin, FITC-MBM1 peptide) (O00255 other isoform, or with tags, fused parts or gaps): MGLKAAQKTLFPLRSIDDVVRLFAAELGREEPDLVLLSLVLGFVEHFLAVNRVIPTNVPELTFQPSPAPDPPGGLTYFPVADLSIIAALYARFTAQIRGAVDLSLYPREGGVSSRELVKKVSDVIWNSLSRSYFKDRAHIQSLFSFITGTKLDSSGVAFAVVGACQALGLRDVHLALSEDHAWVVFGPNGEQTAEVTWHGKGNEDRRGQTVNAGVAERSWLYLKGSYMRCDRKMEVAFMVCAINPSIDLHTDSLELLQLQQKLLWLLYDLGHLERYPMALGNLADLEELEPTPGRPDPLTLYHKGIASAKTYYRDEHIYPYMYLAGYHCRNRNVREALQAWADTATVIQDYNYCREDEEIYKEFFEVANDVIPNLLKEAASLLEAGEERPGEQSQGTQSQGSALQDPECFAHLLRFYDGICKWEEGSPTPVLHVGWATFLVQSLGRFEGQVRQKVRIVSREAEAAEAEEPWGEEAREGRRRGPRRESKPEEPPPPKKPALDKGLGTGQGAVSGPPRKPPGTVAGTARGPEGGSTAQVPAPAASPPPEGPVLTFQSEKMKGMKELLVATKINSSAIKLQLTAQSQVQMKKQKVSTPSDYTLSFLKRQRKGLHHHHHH

The IC50 is the concentration that gives 50% inhibition. As for `CCN(C(=O)c1cc(F)ccc1Oc1nncnc1N1CCC2(C1)CN([C@H](CCCN(C)CC(C)(C)O)C(C)C)C2)C(C)C` [Compound 140, (R)-N-ethyl-5-fluoro-2-((5-(2-(6-((2-hydroxy-2-methylpropyl)(methyl)amino)-2-methylhexan-3-yl)-2,6-diazaspiro[3.4]octan-6-yl)-1,2,4-triazin-6-yl)oxy)-N-isopropylbenzamide fumarate], the IC50 in experiment [1] worked out at 0.093 nM; in the experiment on MOLM14 cells, 110 nM; in the experiment with OCI-AML3 cells, 330 nM; with KO-52 cells it was 5750 nM; in the experiment on MEIS1 mRNA, 28 nM.
The matching figures for `CC(C)[C@@H](C[C@H](O)CN(C)C)N1CC2(CCN(c3ncnnc3Oc3ccc(F)cc3C(=O)N(C(C)C)C(C)C)C2)C1` (single isomer, unassigned) [Compound 366]: 0.088 nM, 17 nM, 76 nM, above 15000 nM and 20 nM.
As to `CCN(C(=O)c1cc(F)ccc1Oc1nncnc1N1CCC2(C1)CN([C@H](C[C@@H](CN(C)C)OC)C(C)C)C2)C(C)C` (single isomer, unassigned) [Compound 315, 2-((5-(2-((3*R,5*S)-6-(dimethylamino)-5-methoxy-2-methylhexan-3-yl)-2,6-diazaspiro[3.4]octan-6-yl)-1,2,4-triazin-6-yl)oxy)-N-ethyl-5-fluoro-N-isopropylbenzamide fumarate], the IC50 was 0.51 nM in experiment [1]; 290 nM with MOLM14 cells; 1090 nM in the experiment on OCI-AML3 cells; above 15000 nM in the experiment with KO-52 cells; around 330 nM in the experiment on MEIS1 mRNA.
For `CCN(C(=O)c1cc(F)ccc1Oc1nncnc1N1CCC2(C1)CN([C@H](CCCN(C)C[C@H](C)C(=O)NC)C(C)C)C2)C(C)C` [Compound 197, N-ethyl-5-fluoro-N-isopropyl-2-((5-(2-((R)-2-methyl-6-(methyl((S)-2-methyl-3-(methylamino)-3-oxopropyl)amino)hexan-3-yl)-2,6-diazaspiro[3.4]octan-6-yl)-1,2,4-triazin-6-yl)oxy)benzamide fumarate], the IC50 in experiment [1] is 0.3 nM; with MOLM14 cells, 45 nM; with OCI-AML3 cells, 36 nM; with KO-52 cells, above 15000 nM; in the experiment with MEIS1 mRNA it was 36 nM.
Regarding `CCN(C(=O)c1cc(F)ccc1Oc1nncnc1N1CCC2(C1)CN([C@H](CCNC(C)C)C(C)C)C2)C(C)C` (single isomer, unassigned) [Compound 229, (*R)—N-ethyl-5-fluoro-N-isopropyl-2-((5-(2-(1-(isopropylamino)-4-methylpentan-3-yl)-2,6-diazaspiro[3.4]octan-6-yl)-1,2,4-triazin-6-yl)oxy)benzamide fumarate], the IC50 in experiment [1] is 0.37 nM; in the experiment with MOLM14 cells it was 320 nM; in the experiment with OCI-AML3 cells, 870 nM; with KO-52 cells, above 15000 nM; in the experiment with MEIS1 mRNA, 360 nM.
`CCN(C(=O)c1cc(F)ccc1Oc1nncnc1N1CCC2(C1)CN([C@H](CCCN(C)C[C@H](O)COC)C(C)C)C2)C(C)C` [Compound 285, N-ethyl-5-fluoro-2-((5-(2-((R)-6-(((S)-2-hydroxy-3-methoxypropyl)(methyl)amino)-2-methylhexan-3-yl)-2,6-diazaspiro[3.4]octan-6-yl)-1,2,4-triazin-6-yl)oxy)-N-isopropylbenzamide formate]: the IC50 in experiment [1] was 1.02 nM; in the experiment with MOLM14 cells it was 160 nM; in the experiment with OCI-AML3 cells, 130 nM; in the experiment on KO-52 cells, above 15000 nM; in the experiment with MEIS1 mRNA it was 270 nM.
The matching figures for `CCN(C(=O)c1cc(F)ccc1Oc1nncnc1N1CCC2(C1)CN([C@H](CCCN(C)[C@H](CO)COC)C(C)C)C2)C(C)C` [Compound 165, N-ethyl-5-fluoro-2-(5-(2-((R)-6-((R)-1-hydroxy-3-methoxypropan-2-yl)(methyl)amino)-2-methylhexan-3-yl)-2,6-diazaspiro[3.4]octan-6-yl)-1,2,4-triazin-6-yl)oxy)-N-isopropylbenzamide fumarate]: 0.06 nM, 30 nM, 99 nM, above 15000 nM and 23 nM.
The matching figures for `CCN(C)C[C@@H](O)C[C@H](C(C)C)N1CC2(CCN(c3ncnnc3Oc3ccc(F)cc3C(=O)N(CC)C(C)C)C2)C1` (single isomer, unassigned) [Compound 342, N-ethyl-2-((5-(2-((3*S,5S)-6-(ethyl(methyl)amino)-5-hydroxy-2-methylhexan-3-yl)-2,6-diazaspiro[3.4]octan-6-yl)-1,2,4-triazin-6-yl)oxy)-5-fluoro-N-isopropylbenzamide fumarate]: 0.17 nM, 10 nM, 25 nM, 23 nM and 78 nM.
Turning to `CCN(C(=O)c1cc(F)ccc1Oc1nncnc1N1CCC2(C1)CN([C@H](CCCN(C)[C@@H](C)CC(=O)NC)C(C)C)C2)C(C)C` [Compound 193, N-ethyl-5-fluoro-N-isopropyl-2-((5-(2-((R)-2-methyl-6-(methyl((S)-4-(methylamino)-4-oxobutan-2-yl)amino)hexan-3-yl)-2,6-diazaspiro[3.4]octan-6-yl)-1,2,4-triazin-6-yl)oxy)benzamide fumarate], the IC50 is around 0.26 nM in experiment [1]; 170 nM with MOLM14 cells; 290 nM with OCI-AML3 cells; above 15000 nM with KO-52 cells; 120 nM in the experiment on MEIS1 mRNA.
For the compound `CCN(C(=O)c1cc(F)ccc1Oc1nncnc1N1CCC2(C1)CN(C(CC(C)(O)CN(C)CCOC)C(C)C)C2)C(C)C` (centres unmarked) [Compound 382, N-ethyl-5-fluoro-2-((5-(2-(5-hydroxy-6-((2-methoxyethyl)(methyl)amino)-2,5-dimethylhexan-3-yl)-2,6-diazaspiro[3.4]octan-6-yl)-1,2,4-triazin-6-yl)oxy)-N-isopropylbenzamide fumarate], the IC50 in experiment [1] stood at 0.41 nM; in the experiment with MOLM14 cells, 140 nM; in the experiment on OCI-AML3 cells it was 400 nM; in the experiment with KO-52 cells it was 11800 nM; with MEIS1 mRNA it was 150 nM.
On to `CCN(C(=O)c1cc(F)ccc1Oc1nncnc1N1CCC2(C1)CN([C@H](CCCN(C)C[C@@H](C)C(=O)N(C)C)C(C)C)C2)C(C)C` (single isomer, unassigned) [Compound 188], for which the IC50 is 0.43 nM in experiment [1]; 55 nM in the experiment with MOLM14 cells; 340 nM in the experiment on OCI-AML3 cells; above 15000 nM in the experiment on KO-52 cells; 34 nM in the experiment with MEIS1 mRNA.
The matching figures for `CCN(C(=O)c1cc(F)ccc1Oc1nncnc1N1CCC2(C1)CN([C@H](CCCCN)C(C)C)C2)C(C)C` (single isomer, unassigned) [Compound 209, (*R)-2-((5-(2-(7-amino-2-methylheptan-3-yl)-2,6-diazaspiro[3.4]octan-6-yl)-1,2,4-triazin-6-yl)oxy)-N-ethyl-5-fluoro-N-isopropylbenzamide formate]: 0.27 nM, 270 nM, 240 nM, above 15000 nM and 130 nM.
`CCN(C(=O)c1cc(F)ccc1Oc1nncnc1N1CCC2(C1)CN([C@H](CCNCCO)C(C)C)C2)C(C)C` (single isomer, unassigned) [Compound 268, (*R)—N-ethyl-5-fluoro-2-((5-(2-(1-((2-hydroxyethyl)amino)-4-methylpentan-3-yl)-2,6-diazaspiro[3.4]octan-6-yl)-1,2,4-triazin-6-yl)oxy)-N-isopropylbenzamide fumarate]: the IC50 in experiment [1] was 0.29 nM; with MOLM14 cells, 200 nM; in the experiment on OCI-AML3 cells it was 530 nM; in the experiment on KO-52 cells, above 15000 nM; with MEIS1 mRNA, 340 nM.
Regarding `CCN(C(=O)c1cc(F)ccc1Oc1nncnc1N1CCC2(C1)CN([C@H](CN)C(C)C)C2)C(C)C` (single isomer, unassigned) [Compound 24, (*S)-2-((5-(2-(1-amino-3-methylbutan-2-yl)-2,6-diazaspiro[3.4]octan-6-yl)-1,2,4-triazin-6-yl)oxy)-N-ethyl-5-fluoro-N-isopropylbenzamide], the IC50 in experiment [1] is 0.97 nM; with MOLM14 cells it was 690 nM; in the experiment with OCI-AML3 cells it was 2680 nM; in the experiment with KO-52 cells, above 15000 nM; in the experiment on MEIS1 mRNA, around 840 nM.
With `CCN(C(=O)c1cc(F)ccc1Oc1nncnc1N1CCC2(C1)CN([C@H](C[C@@H](O)CN(C)CCOC)C(C)C)C2)C(C)C` (single isomer, unassigned) [Compound 356, N-ethyl-5-fluoro-2-((5-(2-((3*R,5R)-5-hydroxy-6-((2-methoxyethyl)(methyl)amino)-2-methylhexan-3-yl)-2,6-diazaspiro[3.4]octan-6-yl)-1,2,4-triazin-6-yl)oxy)-N-isopropylbenzamide fumarate], the IC50 in experiment [1] was 0.053 nM; in the experiment with MOLM14 cells, 7 nM; in the experiment with OCI-AML3 cells it was 46 nM; in the experiment on KO-52 cells, above 15000 nM; with MEIS1 mRNA, around 8.2 nM.
In the case of `CCN(C(=O)c1cc(F)ccc1Oc1nncnc1N1CCC2(C1)CN([C@H](CCCN(C)C[C@@H](COC)OC)C(C)C)C2)C(C)C` (single isomer, unassigned) [Compound 177, 2-((5-(2-((R)-6-(((*S)-2,3-dimethoxypropyl)(methyl)amino)-2-methylhexan-3-yl-2,6-diazaspiro[3.4]octan-6-yl)-1,2,4-triazin-6-yl)oxy)-N-ethyl-5-fluoro-N-isopropylbenzamide fumarate], the IC50 in experiment [1] is 0.062 nM; with MOLM14 cells, 24 nM; with OCI-AML3 cells it was 64 nM; in the experiment with KO-52 cells, above 15000 nM; in the experiment with MEIS1 mRNA, 7.3 nM.
